Test results published in PubChem BioAssay AID330 (DTP/NCI, 2004).
“And” between values parts separate entries of the source, which are not always exact repeats. Identical values can stand only once. Toxic doses and inconclusive results are not listed.

Test system: P388 leukemia ip, CD2F1 mice, survival T/C
Assay: NCI In Vivo Anticancer Drug Screen. Data for tumor model P388 Leukemia (intraperitoneal) in CD2F1 (CDF1) mice
Details: endpoint: median survival time, higher = longer survival
Method in brief: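 Mice carrying the transplanted tumor received test compound or vehicle. Survival was recorded in each group, and the value is the treated-group measurement divided by that of the vehicle-treated control group.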

[1] = dose: 100.0 mg/kg/injection, schedule: Q01DX001 (ip), vehicle: saline with Tween-80
[2] = dose: 200.0 mg/kg/injection, schedule: Q01DX001 (ip), vehicle: saline with Tween-80
[3] = dose: 400.0 mg/kg/injection, schedule: Q01DX001 (ip), vehicle: saline with Tween-80
[4] = dose: 50.0 mg/kg/injection, schedule: Q01DX005 (ip), vehicle: saline
[5] = dose: 100.0 mg/kg/injection, schedule: Q01DX005 (ip), vehicle: saline
[6] = dose: 60.0 mg/kg/injection, schedule: Q01DX005 (ip), vehicle: saline with Tween-80
[7] = dose: 120.0 mg/kg/injection, schedule: Q01DX005 (ip), vehicle: saline with Tween-80
[8] = dose: 240.0 mg/kg/injection, schedule: Q01DX005 (ip), vehicle: saline with Tween-80
[9] = dose: 50.0 mg/kg/injection, schedule: Q01DX005 (ip), vehicle: Klucel (hydroxypropylcellulose) (HPC)
[10] = dose: 100.0 mg/kg/injection, schedule: Q01DX005 (ip), vehicle: Klucel (hydroxypropylcellulose) (HPC)
[11] = dose: 200.0 mg/kg/injection, schedule: Q01DX005 (ip), vehicle: Klucel (hydroxypropylcellulose) (HPC)
[12] = dose: 50.0 mg/kg/injection, schedule: Q01DX009 (ip), vehicle: saline with Tween-80
[13] = dose: 100.0 mg/kg/injection, schedule: Q01DX009 (ip), vehicle: saline with Tween-80
[14] = dose: 200.0 mg/kg/injection, schedule: Q01DX009 (ip), vehicle: saline with Tween-80
[15] = dose: 50.0 mg/kg/injection, schedule: Q01DX005 (ip), vehicle: saline with Tween-80
[16] = dose: 100.0 mg/kg/injection, schedule: Q01DX005 (ip), vehicle: saline with Tween-80
[17] = dose: 200.0 mg/kg/injection, schedule: Q01DX005 (ip), vehicle: saline with Tween-80
[18] = dose: 50.0 mg/kg/injection, schedule: Q01DX009 (ip), vehicle: Klucel (hydroxypropylcellulose) (HPC)

CCC(c1ccc(OC)cc1)C(NCC(=O)NNC(=S)Nc1ccccc1)c1ccc(OC)cc1 (stereo not drawn)
T/C [1]: 92 % of control
T/C [2]: 101 % of control
T/C [3]: 108 % of control

CCc1c(O)c2c([nH]c1=O)SC(C)(C)CC2=NCC(C)C
T/C [4]: 93 % of control
T/C [5]: 96 % of control
T/C (dose: 200.0 mg/kg/injection, schedule: Q01DX005 (ip), vehicle: saline): 94 % of control

CN1/C(=C/C2=C([O-])C(=C/C3=[N+](C)c4ccccc4C3(C)C)/C2=O)C(C)(C)c2ccccc21
T/C (dose: 60.0 mg/kg/injection, schedule: Q01DX005 (ip), vehicle: Klucel (hydroxypropylcellulose) (HPC)): 91 % of control
T/C (dose: 120.0 mg/kg/injection, schedule: Q01DX005 (ip), vehicle: Klucel (hydroxypropylcellulose) (HPC)): 87 % of control

CCC1CCC2CCOCN2C1 (stereo not drawn)
T/C [4]: 97 % of control
T/C [5]: 94 % of control

O=C([CH-]C(=O)C(F)(F)F)c1ccco1.O=C([CH-]C(=O)C(F)(F)F)c1ccco1.O=C([CH-]C(=O)C(F)(F)F)c1ccco1.[Ru+3]
T/C [6]: 100 % of control
T/C [7]: 97 % of control
T/C [8]: 89 % of control

c1ccc(C2NCCS2)cc1 (stereo not drawn)
T/C [9]: 100 % of control
T/C [10]: 104 % of control
T/C [11]: 104 % of control

CCN(CC)c1ccc(NC(c2ccccc2)C(O)c2ccccc2)cc1 (stereo not drawn)
T/C [9]: 96 % of control
T/C [10]: 104 % of control

O=C(NCCN1CCOCC1)c1cc2ccccc2oc1=O
T/C [6]: 93 % of control
T/C [7]: 91 % of control
T/C [8]: 92 % of control

O=C1OC(c2ccc(Cl)cc2)=N/C1=C\c1ccccc1
T/C [12]: 120 % of control
T/C [13]: 90 % of control
T/C [14]: 100 % of control

CCOC(=O)/C(N=Nc1ccccc1Cl)=C(\C)O
T/C [9]: 101 % of control
T/C [10]: 101 % of control
T/C [11]: 101 % of control

CCC(=O)[C@]1(O)Cc2c(O)c3c(c(O)c2[C@@H](OC2CC(N)C(O)C(C)O2)C1)C(=O)c1c(OC)cccc1C3=O (stereo partly drawn)
T/C (dose: 3.13 mg/kg/injection, schedule: Q04DX003 (ip), vehicle: water): 102 % of control
T/C (dose: 6.25 mg/kg/injection, schedule: Q04DX003 (ip), vehicle: water): 112 % of control
T/C (dose: 12.5 mg/kg/injection, schedule: Q04DX003 (ip), vehicle: water): 119 % of control
T/C (dose: 25.0 mg/kg/injection, schedule: Q04DX003 (ip), vehicle: water): 119 % of control
T/C (dose: 50.0 mg/kg/injection, schedule: Q04DX003 (ip), vehicle: water): 110 % of control

Cc1cc(NCCCCCCNc2cc(C)nc3cc(N)ccc23)c2ccc(N)cc2n1
T/C (dose: 25.0 mg/kg/injection, schedule: Q01DX009 (ip), vehicle: other): 150 % of control and 158 % of control

CC1=C(C)CN(c2ccnc3cc(Cl)ccc23)OC1
T/C [15]: 102 % of control
T/C [16]: 97 % of control
T/C [17]: 97 % of control

Fc1cccc(NC(=S)SCc2ccc(Cl)c(Cl)c2)c1
T/C (dose: 50.0 mg/kg/injection, schedule: Q01DX009 (ip), vehicle: suspension in saline): 99 % of control
T/C (dose: 100.0 mg/kg/injection, schedule: Q01DX009 (ip), vehicle: suspension in saline): 93 % of control
T/C (dose: 200.0 mg/kg/injection, schedule: Q01DX009 (ip), vehicle: suspension in saline): 109 % of control

COc1cc(OC)cc(C2SCC(=O)N2c2nncs2)c1 (stereo not drawn)
T/C [6]: 107 % of control
T/C [7]: 98 % of control
T/C [8]: 93 % of control

COc1ccc(Nc2nnc(-c3ccc4c(c3)OCO4)o2)cc1
T/C [9]: 100 % of control
T/C [10]: 93 % of control
T/C [11]: 97 % of control

CCOC(=O)NC(=O)CCC(=O)Nc1ccc2ccccc2c1
T/C (dose: 100.0 mg/kg/injection, schedule: Q04DX003 (ip), vehicle: saline with Tween-80): 97 % of control
T/C (dose: 200.0 mg/kg/injection, schedule: Q04DX003 (ip), vehicle: saline with Tween-80): 95 % of control
T/C (dose: 400.0 mg/kg/injection, schedule: Q04DX003 (ip), vehicle: saline with Tween-80): 96 % of control

COc1cc(N)c(S(=O)(=O)O)cc1N=N/C(=N/Nc1cc(S(=O)(=O)O)c(N)cc1OC)C(=O)Nc1ccccc1
T/C [9]: 107 % of control
T/C [10]: 104 % of control
T/C [11]: 109 % of control

COc1ccc(/C(C)=N/N=c2/sc3ccccc3n2CC(=O)O)cc1
T/C [1]: 101 % of control
T/C [2]: 101 % of control
T/C [3]: 91 % of control

CCCCC(=O)NN(Cn1c(=S)sc2ccccc21)Cn1c(=S)sc2ccccc21
T/C (dose: 1.56 mg/kg/injection, schedule: Q01DX009 (ip), vehicle: Klucel (hydroxypropylcellulose) (HPC)): 88 % of control
T/C (dose: 3.12 mg/kg/injection, schedule: Q01DX009 (ip), vehicle: Klucel (hydroxypropylcellulose) (HPC)): 106 % of control and 88 % of control
T/C (dose: 6.25 mg/kg/injection, schedule: Q01DX009 (ip), vehicle: Klucel (hydroxypropylcellulose) (HPC)): 100 % of control and 86 % of control and 93 % of control
T/C (dose: 12.5 mg/kg/injection, schedule: Q01DX009 (ip), vehicle: Klucel (hydroxypropylcellulose) (HPC)): 90 % of control and 97 % of control
T/C [18]: 88 % of control and 91 % of control

N=C(/C(=C/c1cccc2ccccc12)c1ccccc1)c1ccccc1
T/C [18]: 98 % of control
T/C (dose: 100.0 mg/kg/injection, schedule: Q01DX009 (ip), vehicle: Klucel (hydroxypropylcellulose) (HPC)): 104 % of control
T/C (dose: 200.0 mg/kg/injection, schedule: Q01DX009 (ip), vehicle: Klucel (hydroxypropylcellulose) (HPC)): 108 % of control

c1ccc(C2=C(c3ccccc3)c3ccccc3CO2)cc1
T/C (dose: 100.0 mg/kg/injection, schedule: Q01DX001 (ip), vehicle: saline): 105 % of control
T/C (dose: 200.0 mg/kg/injection, schedule: Q01DX001 (ip), vehicle: saline): 100 % of control
T/C (dose: 400.0 mg/kg/injection, schedule: Q01DX001 (ip), vehicle: saline): 100 % of control

COc1ccc(CC2=CC(=O)C(C)=CC2=O)cc1
T/C (dose: 6.25 mg/kg/injection, schedule: Q01DX005 (ip), vehicle: saline with Tween-80): 98 % of control
T/C (dose: 12.5 mg/kg/injection, schedule: Q01DX005 (ip), vehicle: saline with Tween-80): 91 % of control
T/C (dose: 25.0 mg/kg/injection, schedule: Q01DX005 (ip), vehicle: saline with Tween-80): 97 % of control

CC(C)(C)c1cc(=O)[nH]c(NC(N)=O)n1
T/C [12]: 96 % of control
T/C [13]: 90 % of control
T/C [14]: 96 % of control

CCOC(=O)CC(N)/C(C)=N\O (stereo not drawn)
T/C (dose: 60.0 mg/kg/injection, schedule: Q01DX005 (ip), vehicle: Klucel + Tween-80): 104 % of control
T/C (dose: 120.0 mg/kg/injection, schedule: Q01DX005 (ip), vehicle: Klucel + Tween-80): 100 % of control
T/C (dose: 240.0 mg/kg/injection, schedule: Q01DX005 (ip), vehicle: Klucel + Tween-80): 100 % of control

CC(C)(C)C1=CC(=CC=C2C=CN(CCCCCCCCCCCO)C=C2)C=C(C(C)(C)C)C1=O
T/C [6]: 108 % of control
T/C [7]: 107 % of control
T/C [8]: 110 % of control

CSc1nc(SC)c2nc(SC)sc2n1
T/C (dose: 50.0 mg/kg/injection, schedule: Q01DX001 (ip), vehicle: saline with Tween-80): 90 % of control
T/C [1]: 88 % of control and 90 % of control
T/C [2]: 90 % of control
T/C [3]: 87 % of control

O=c1[nH]c(=O)c2[nH]c(Br)nc2[nH]1
T/C [9]: 102 % of control
T/C [10]: 100 % of control
T/C [11]: 100 % of control

Cc1nc(-c2ccc(Cl)cc2)c(Cc2c(O)ccc3ccccc23)c(=O)[nH]1
T/C (dose: 50.0 mg/kg/injection, schedule: Q01DX009 (ip), vehicle: saline): 102 % of control
T/C (dose: 100.0 mg/kg/injection, schedule: Q01DX009 (ip), vehicle: saline): 102 % of control
T/C (dose: 200.0 mg/kg/injection, schedule: Q01DX009 (ip), vehicle: saline): 102 % of control

CCN1C(=O)NS(=O)(=O)c2ccccc21
T/C [15]: 94 % of control
T/C [16]: 107 % of control
T/C [17]: 97 % of control

CC1(C)CC(NC(=O)c2cc([N+](=O)[O-])c(S(=O)(=O)O)c([N+](=O)[O-])c2)CC(C)(C)N1O
T/C (dose: 100.0 mg/kg/injection, schedule: Q04DX002 (ip), vehicle: saline with Tween-80): 110 % of control
T/C (dose: 200.0 mg/kg/injection, schedule: Q04DX002 (ip), vehicle: saline with Tween-80): 100 % of control
T/C (dose: 400.0 mg/kg/injection, schedule: Q04DX002 (ip), vehicle: saline with Tween-80): 107 % of control
